Source: patent US10125095B2, “Abscisic acid derivative” (NATIONAL UNIVERSITY CORPORATION SHIZUOKA UNIVERSITY, priority 2014, dated 2018)

Key:
Type in all cases: biochemical, thale cress
Conditions in all cases: control = 100%
PYL5 = target: T1, PYL5 (Arabidopsis thaliana, UniProt Q9FLB1); assay: Protein dephosphorylation enzyme activity test, PYL5
T1 construct: 6xHis (N); made in house; host or cells: Escherichia coli BL21-codonplus(DE3)-RIPL (PYL); BL21(DE3)pLysS (HAB1)
T1 sequence (Q9FLB1 1-203): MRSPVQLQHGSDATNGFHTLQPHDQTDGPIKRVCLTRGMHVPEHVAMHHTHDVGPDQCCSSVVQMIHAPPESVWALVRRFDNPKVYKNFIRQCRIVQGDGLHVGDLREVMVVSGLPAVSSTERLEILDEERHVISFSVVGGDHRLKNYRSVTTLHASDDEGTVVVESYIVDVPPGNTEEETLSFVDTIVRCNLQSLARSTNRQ
Protocol: (§1) A plasmid (pGex-2T-GST-HAB1 or pET28-6×His-PYL) encoded with PYR/PYL/RCAR proteins (PYL, abscisic acid receptor) or protein dephosphorylation enzyme HAB1 of thale cress was transformed to Escherichia coli (HAB1:BL21(DE3)pLysS, PYL:BL21-codonplus(DE3)-RIPL). Isopropyl-β-thiogalactopyranoside was added to the culture broth, which had been subjected to pre-culture (30° C., 180 rpm, 15 hours) and main culture (30° C., 180 rpm, 4 hours), and the protein-expressed (16° C., 150 rpm, 18 hours) crude enzyme solution was purified using FPLC thereby preparing the recombined PYL (PYR1, PYL1-6, PYL8-10) and HAB1. β-Mercaptoethanol, a manganese chloride aqueous solution, HAB1, PYL, a solution of the sample in dimethylsulfoxide and ultrapure water were sequentially added to a 96-well plate, allowed to stand at 22° C. for 30 minutes. Subsequently p-nitrophenylphosphate, which is the artificial substrate of HAB1, was added thereto to start the reaction, and the plate was placed in a microplate reader (TECAN, Infinite™ N200 NanoQuant). The absorbance at 405 nm due to p-nitrophenol, which is the hydrolysate of p-nitrophenylphosphate, was measured 3 minutes later from the reaction initiation, and HAB1 activity was calculated by the following formula (2). Note that the fraction to which only dimethylsulfoxide was added was considered to be the control and the activity thereof was defined as 100%. […] HAB1 specific activity (%)=Absorbance when sample was added/Absorbance of control×100 (2)

PYL4 = target: T2, PYL4 (Arabidopsis thaliana, UniProt O80920); assay: Protein dephosphorylation enzyme activity test, PYL4
T2 construct: 6xHis (N); made in house; host or cells: Escherichia coli BL21-codonplus(DE3)-RIPL (PYL); BL21(DE3)pLysS (HAB1)
T2 sequence (O80920 1-207): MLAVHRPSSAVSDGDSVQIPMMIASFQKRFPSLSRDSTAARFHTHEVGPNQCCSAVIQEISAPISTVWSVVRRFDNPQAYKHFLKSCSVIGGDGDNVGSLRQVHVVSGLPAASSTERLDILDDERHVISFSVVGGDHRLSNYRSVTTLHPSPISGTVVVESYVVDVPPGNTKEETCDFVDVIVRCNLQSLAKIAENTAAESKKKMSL
Protocol: as §1

PYL10 = target: T3, PYL10 (Arabidopsis thaliana, UniProt Q8H1R0); assay: Protein dephosphorylation enzyme activity test, PYL10
T3 construct: 6xHis (N); made in house; host or cells: Escherichia coli BL21-codonplus(DE3)-RIPL (PYL); BL21(DE3)pLysS (HAB1)
T3 sequence (Q8H1R0 1-183): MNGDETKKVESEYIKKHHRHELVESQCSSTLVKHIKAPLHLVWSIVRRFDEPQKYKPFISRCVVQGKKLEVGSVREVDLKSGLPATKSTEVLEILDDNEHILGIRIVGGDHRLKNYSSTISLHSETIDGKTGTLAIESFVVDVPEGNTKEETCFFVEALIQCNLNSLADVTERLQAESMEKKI
Protocol: as §1

PYL3 = target: T4, PYL3 (Arabidopsis thaliana, UniProt Q9SSM7); assay: Protein dephosphorylation enzyme activity test, PYL3
T4 construct: 6xHis (N); made in house; host or cells: Escherichia coli BL21-codonplus(DE3)-RIPL (PYL); BL21(DE3)pLysS (HAB1)
T4 sequence (Q9SSM7 1-209): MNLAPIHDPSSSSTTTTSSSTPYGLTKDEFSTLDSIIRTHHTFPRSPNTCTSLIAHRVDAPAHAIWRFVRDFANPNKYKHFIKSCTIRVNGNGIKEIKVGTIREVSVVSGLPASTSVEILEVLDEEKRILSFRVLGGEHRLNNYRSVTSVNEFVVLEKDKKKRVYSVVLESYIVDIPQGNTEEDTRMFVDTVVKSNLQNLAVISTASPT
Protocol: as §1

PYL6 = target: T5, PYL6 (Arabidopsis thaliana, UniProt Q8S8E3); assay: Protein dephosphorylation enzyme activity test, PYL6
T5 construct: 6xHis (N); made in house; host or cells: Escherichia coli BL21-codonplus(DE3)-RIPL (PYL); BL21(DE3)pLysS (HAB1)
T5 sequence (Q8S8E3 1-215): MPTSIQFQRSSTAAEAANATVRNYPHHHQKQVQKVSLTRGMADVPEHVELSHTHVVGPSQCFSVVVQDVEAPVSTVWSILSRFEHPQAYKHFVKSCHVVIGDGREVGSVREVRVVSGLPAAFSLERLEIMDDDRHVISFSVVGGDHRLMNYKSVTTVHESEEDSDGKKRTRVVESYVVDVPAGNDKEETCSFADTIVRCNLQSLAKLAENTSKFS
Protocol: as §1

PYL2 = target: T6, PYL2 (Arabidopsis thaliana, UniProt O80992); assay: Protein dephosphorylation enzyme activity test, PYL2
T6 construct: 6xHis (N); made in house; host or cells: Escherichia coli BL21-codonplus(DE3)-RIPL (PYL); BL21(DE3)pLysS (HAB1)
T6 sequence (O80992 1-190): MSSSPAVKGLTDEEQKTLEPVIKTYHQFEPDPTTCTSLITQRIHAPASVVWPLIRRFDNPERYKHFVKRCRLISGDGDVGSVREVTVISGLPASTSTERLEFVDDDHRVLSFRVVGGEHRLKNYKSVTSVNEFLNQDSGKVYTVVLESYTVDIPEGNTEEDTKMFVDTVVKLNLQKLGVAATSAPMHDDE
Protocol: as §1

PYL8 = target: T7, PYL8 (Arabidopsis thaliana, UniProt Q9FGM1); assay: Protein dephosphorylation enzyme activity test, PYL8
T7 construct: 6xHis (N); made in house; host or cells: Escherichia coli BL21-codonplus(DE3)-RIPL (PYL); BL21(DE3)pLysS (HAB1)
T7 sequence (Q9FGM1 1-188): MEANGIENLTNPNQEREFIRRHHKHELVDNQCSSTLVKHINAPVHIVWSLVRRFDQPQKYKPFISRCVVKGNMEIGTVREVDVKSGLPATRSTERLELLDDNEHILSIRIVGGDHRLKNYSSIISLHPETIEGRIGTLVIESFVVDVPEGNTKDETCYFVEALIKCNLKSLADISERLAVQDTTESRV
Protocol: as §1

Compound	HAB1 Specific activity (%) PYL5 (PYL5; sample alone) [%]	HAB1 Specific activity (%) PYL4 (PYL4; sample alone) [%]	HAB1 Specific activity (%) PYL10 (PYL10; sample alone) [%]	HAB1 Specific activity (%) PYL3 (PYL3; sample alone) [%]	HAB1 Specific activity (%) PYL6 (PYL6; sample alone) [%]	HAB1 Specific activity (%) PYL2 (PYL2; sample alone) [%]	HAB1 Specific activity (%) PYL8 (PYL8; sample alone) [%]	HAB1 Specific activity (%) PYL5 (PYL5; ABA + compound) [%]	HAB1 Specific activity (%) PYL10 (PYL10; ABA + compound) [%]	HAB1 Specific activity (%) PYL3 (PYL3; ABA + compound) [%]	HAB1 Specific activity (%) PYL6 (PYL6; ABA + compound) [%]	HAB1 Specific activity (%) PYL2 (PYL2; ABA + compound) [%]	HAB1 Specific activity (%) PYL8 (PYL8; ABA + compound) [%]	HAB1 Specific activity (%) PYL4 (PYL4; ABA + compound) [%]
CC1=CC(=O)CC(C)(C)[C@@]1(O)/C=C/C(C)=C\C(=O)O [ABA, abscisic acid]	15.5	18.2	16.2	16.8	19.5	13.1	13.9	–	–	–	–	–	–	–
CC1=C[C@@H](OCC#Cc2ccccc2)CC(C)(C)[C@@]1(O)/C=C/C(C)=C\C(=O)O [Example 1, (2Z,4E)-5-((1S,4S)-1-hydroxy-2,6,6-trimethyl-4-((3-phenylprop-2-yn-1-yl)oxy)cyclohex-2-en-1-yl)-3-methylpenta-2,4-dienoic acid]	85.8	108	93.7	88.6	122	96.6	105	87	90.7	49.2	87.6	84.8	76.9	–
CC1=C[C@@H](OCC#Cc2ccc(C)cc2)CC(C)(C)[C@@]1(O)/C=C/C(C)=C\C(=O)O [Example 7]	85.5	119	99.0	121	93.5	133	98.5	74.6	82.5	61	61.0	113	98.7	101
